Test results reported in patent US20170165295A1, “COMPOSITION FOR PREVENTING, ALLEVIATING OR TREATING CONSTIPATION, CONTAINING HIGH HARDNESS MINERAL WATER PREPARED FROM DEEP OCEAN WATER OR DESALINATED GROUNDWATER” (ARIBIO INC., priority 2012, published 2017).
Structures can show the parent of a compound that is named as a salt. Marks after values point to notes of the source that are not given here.

Legend:
[1] = Body weight change of loperamide-induced constipated rats
Procedure: (§1) 6-week-old rats (SLC, Japan) were used for an experiment after acclimatization to new environments for 7 days. Five rats were raised per cage at 20-25° C. and 45-50% humidity. The light-dark cycle was 12 hr: 12 hr, and water and food were freely available. The rats were classified into six groups (nine rats per group, a total of 54 rats) based on the body weight thereof. Specific groups are as follows:
(§2) Administration of Test Material Magnesium hydroxide (Mg(OH)2; MagMill™) was purchased from Samnam Pharm. In order to protect test materials from light and moisture, the test materials were stored in a refrigerator at 4° C. The mineral water was orally administered at 10 ml/kg for each time, at an interval of 6 hours (30 ml/kg/day), three times a day, for a total of six days. The administration for each time was conducted 1 hour after administration of loperamide 3 mg/kg. Magnesium hydroxide was mixed with distilled water, and the mixture was orally administered once a day for a total of six days, and the same amount of distilled water was orally administered at the time of second and third administrations. Distilled water, instead of mineral water, was administered to groups 1 and 2.
(§3) In order to induce constipation, loperamide hydrochloride (Sigma, MO, U.S.) 3 mg/kg was mixed with saline water 5 ml/kg, and the mixture was orally administered to animals 1 hour before administration of the test material, once a day, for a total of six days. Detailed methods are disclosed in Bustos et al. Acta Gastroenterol Latinoam, 1991; 21:3-9 and Wintola et al. BMC Gastroenterol, 2010; 10:95, which are incorporated by reference into the present specification.
Body weight was measured once per day 1 day before the test material administration, at the day of the initiation of administration, and 1, 2, 3, 4, and 5 days after the initiation of administration, to verify the body weight change according to administration of the test material. All the animals were fasted (excluding water) for 5 days after the initiation of administration for one overnight in order to decrease the body weight difference due to feed ingestion and measure the intestinal charcoal transit ratio. In addition, the body weight gain was calculated by equation 1.
Body weight gain (g)=body weight at 6th administration last day−body weight at the day of the initiation of administration. [Equation 1]

[2] = test system: loperamide-induced constipated rats; assay: Fecal parameters in loperamide-induced constipated rats; assay type: in vivo; details: for Fecal dry-weights / Fecal wet-weights / Numbers of fecal pellets / Water contents of fecal pellets: collected at 4th administration day (24 hrs), mean ± S.D. of nine rats
Procedure: as §1, §2, §3
The fecal pellets of each rat were collected 24 hours after the 4th administration day. The total number, wet weight, and water content of the fecal pellets were checked. The water content was calculated by equation 2 below:
Water content of fecal pellets (%)=((wet weight of fecal pellets−dry weight of fecal pellets)/wet weight of fecal pellets)×100 [Equation 2]
(§4) Multiple comparison tests of the groups with different dosages were conducted. Variance homogeneity was examined using the Levene test (Levene A, Clin Otalary, 1981; 6:145-51). […] In cases where significant deviations from variance homogeneity were observed by the Levene test, the non-parametric comparison test and Kruskal-Wallis H test were conducted. When a significant difference was observed by the Kruskal-Wallis H test, the Mann-Whitney U (MW) test was used to determine the significance of specific pairwise comparisons. Statistical analyses were conducted using SPSS (Release 14K, SPSS Inc. USA; Ludbrook, Clin Exp Pharmacol Physiol, 1997; 24:294-6). In addition, the percentage change between the normal group and loperamide control was calculated to identify the severity of induced constipation, and then, in order to evaluate the efficacy of the test materials, the percent change compared with the loperamide control was calculated by equations 4 and 5.
(§5) Percent change compared with normal group (%)=(((normal group data)−(loperamide control data)/normal group data)×100) [Equation 4]
(§6) Percentage change (%) compared with loperamide control=(((loperamide control data−test material administered rat data)/(loperamide control data))×100) [Equation 5]

[3] = test system: loperamide-induced constipated rats; assay: Remnant fecal pellets in the colon of loperamide-induced constipated rats; assay type: in vivo
Procedure: as §1, §2, §3
The total number and mean thickness (short axis) of remnant fecal pellets in the colonic lumen were measured when the gastrointestinal charcoal transit ratio was measured.
as §4, §5, §6

[4] = test system: loperamide-induced constipated rats; assay: Gastrointestinal charcoal transit ratio in loperamide-induced constipated rats; assay type: in vivo; details: for Gastrointestinal charcoal transit ratio / Length of charcoal meal transferred: during 30 min after charcoal meal, after 6th administration, mean ± S.D. of nine rats
Procedure: as §1, §2, §3
The gastrointestinal propulsion of the charcoal meal was checked by the method disclosed in Sagar et al. BMC Complement Altern Med, 2005; 5:18, with minor modification. Prior to the experiment, animals were fasted for 18 hours (water supplied). Ten minutes after the 6th administration (last) of the test material, animals of each group were fed with 1 ml of charcoal meal (3% suspension of activated charcoal in 0.5% aqueous methylcellulose). Thirty minutes after charcoal meal ingestion, the animals of each group were sacrificed, and the total small intestine length (from pyloric sphincter to appendix) and the charcoal meal transit distance were measured. The gastrointestinal charcoal transit ratio was calculated by equation 3 below:
Charcoal transit ratio (%)=(([…])/total small intestine length)×100 [Equation 3]
as §4, §5, §6

[5] = test system: loperamide-induced constipated rats; assay: Histomorphometry of the colon and remnant fecal pellets in loperamide-induced constipated rats; assay type: in vivo; details: for Colon mucosa thicknesses / Fecal pellet surface mucous thickness / Mucous producing cell numbers: at sacrifice, 6 days of administration, mean ± S.D. of nine rats; for Mucous producing cell numbers: colonic mucosa
Procedure: as §1, §2, §3
Histopathological assessment of the colonic mucosa and remnant fecal pellets in the colonic lumen was conducted by the method of Wu et al. J Ethnopharmacol, 2011; 134:406-13, with minor modification. In short, the distal colon fragment containing one fecal pellet was isolated using ligatures, removed, and immediately fixed with 10% formaldehyde (when the gastrointestinal charcoal transit ratio was measured). The fixed tissue segments were paraffin-embedded, and sliced into 3 μm-thickness cross sections. The sliced samples were stained with Alcian blue at pH 2.5. Five tissue segments per group were prepared, and histological profiles thereof were interpreted. The histopathologist was blinded to the group distributions at the time of analysis.
Histomorphometry: The mean thickness of the mucosal layers at the fecal surface (μm/fecal pellet), mucous-producing cell number (cells/mm^2) per unit area in the colonic mucosa, and the colonic mucosal thickness (μm/colon) were measured by using an automated image analyzer (DMI-300, DMI, Korea) under a light microscope.
as §4, §5

[6] = loperamide control 3 mg/kg, percent change compared with the normal group
[7] = at sacrifice after 6th administration, 18 h fasting, mean ± S.D. of nine rats
[8] = percent change compared with the loperamide control

Which results are given for `CN(C)C(=O)C(CCN1CCC(O)(c2ccc(Cl)cc2)CC1)(c1ccccc1)c1ccccc1` [Loperamide, loperamide hydrochloride]?
significant changes in body weight and weight gain ([1]; compared with the normal group and loperamide control): not observed; change in weight gain during the administration period ([1]; loperamide control 3 mg/kg, percent change compared with normal group): −7.92%; Fecal dry-weights [2]: 4.17 ± 0.63^a g/24 hr/rat; Fecal wet-weights [2]: 7.65 ± 1.25^d g/24 hr/rat; Numbers of fecal pellets [2]: 45.22 ± 4.97^d; Water contents of fecal pellets [2]: 45.29 ± 4.06^a %; change in number of fecal pellets for 24 hours, 4 days after administration [2, 6]: −27.45%; change in water content in fecal pellets for 24 hours, 4 days after administration [2, 6]: −17.47%; Remnant fecal pellets in the colon: Numbers [3, 7]: 3.89 ± 1.05^a; change in mean diameter of remnant fecal pellets in the colon [3, 6]: 57.96%; change in number of remnant fecal pellets in the colon [3, 6]: 118.75%; Gastrointestinal charcoal transit ratio [4]: 61.20 ± 5.98^a %; Length of charcoal meal transferred [4]: 74.21 ± 6.41^a cm; change in intestinal charcoal transit ratio [4, 6]: −20.05%; Colon mucosa thicknesses [5]: 104.38 ± 10.79^c μm; Fecal pellet surface mucous thickness [5]: 5.84 ± 2.53^a μm; Mucous producing cell numbers [5]: 179.00 ± 46.31^c cells/mm^2; change in colon mucosa thickness [5, 6]: −70.97%; change in fecal pellet surface mucosal thickness in the colon [5, 6]: −89.93%; change in mucous-producing cell number per unit area in the colonic mucosa [5, 6]: −72.40%

For `[Mg+2].[OH-].[OH-]` [Mg(OH)2, Magnesium hydroxide], which “Body weights at Last (6th) administration [B]” value ([1]; after overnight fasting, loperamide 3 mg/kg, Mg(OH)2 200 mg/kg/day or mineral water 30 ml/kg/day oral, mean ± S.D. of nine rats) is on record?
The value was 241.67 ± 10.36 g.

And the “Body weight gains [B − A]” value ([1]; last (6th) administration minus initiation of administration, mean ± S.D. of nine rats)?
The value was 22.44 ± 4.19 g.

What about the “change in weight gain during the administration period” value [1, 8] of the same compound?
Its value is 8.60%.

And the “Body weights at Initiation of administration [A]” value ([1]; rats given loperamide 3 mg/kg, Mg(OH)2 200 mg/kg/day or mineral water 30 ml/kg/day oral, 6 days, mean ± S.D. of nine rats)?
Its value is 219.22 ± 8.79 g.

What about the “Body weights at Fifth administration” value ([1]; rats given loperamide 3 mg/kg, Mg(OH)2 200 mg/kg/day or mineral water 30 ml/kg/day oral, mean ± S.D. of nine rats) of the same compound?
Its value is 260.33 ± 12.38 g.

What about the Fecal dry-weights [2] of the same compound?
Its Fecal dry-weights is 4.21 ± 0.55^a g/24 hr/rat.

What about the Fecal wet-weights [2] of the same compound?
Its Fecal wet-weights is 9.18 ± 0.88^dg g/24 hr/rat.

What about the “Numbers of fecal pellets” value [2] of the same compound?
Its value is 52.33 ± 4.21^ef.

What about the “Water contents of fecal pellets” value [2] of the same compound?
Its value is 53.50 ± 9.99^c %.

What about the “change in number of fecal pellets for 24 hours, 4 days after administration” value [2, 8] of the same compound?
Its value is 17.94%.

And the “change in water content in fecal pellets for 24 hours, 4 days after administration” value [2, 8]?
The value was 18.12%.

And the “Remnant fecal pellets in the colon: Numbers” value [3, 7]?
Its value is 1.89 ± 0.93^c.

And the “change in mean diameter of remnant fecal pellets in the colon” value [3, 8]?
The value was −18.76%.

What about the “change in number of remnant fecal pellets in the colon” value [3, 8] of the same compound?
Its value is −51.43%.

What about the “Remnant fecal pellets in the colon: Mean thicknesses” value ([3]; short axis, at sacrifice after 6th administration, 18 h fasting, mean ± S.D. of nine rats) of the same compound?
The value was 5.26 ± 0.38^c μm.

And the “Gastrointestinal charcoal transit ratio” value [4]?
Its value is 66.76 ± 3.47^ac %.

What about the “Length of charcoal meal transferred” value [4] of the same compound?
Its value is 83.33 ± 6.06^a cm.

What about the “change in intestinal charcoal transit ratio” value [4, 8] of the same compound?
Its value is 9.10%.

And the Colon mucosa thicknesses [5]?
The Colon mucosa thicknesses was 164.16 ± 22.31^cd μm.

And the “Fecal pellet surface mucous thickness” value [5]?
Its value is 24.33 ± 7.82^ab μm.

And the “Mucous producing cell numbers” value [5]?
Its value is 313.56 ± 42.27^cd cells/mm^2.

And the “change in colon mucosa thickness” value [5, 8]?
Its value is 57.27%.

What about the “change in fecal pellet surface mucosal thickness in the colon” value [5, 8] of the same compound?
Its value is 316.22%.

What about the “change in mucous-producing cell number per unit area in the colonic mucosa” value [5, 8] of the same compound?
The value was 75.17%.
